Format in all cases: functional
The test system of experiment [1] is Mycobacterium tuberculosis. In words: Antimycobacterial activity against Mycobacterium tuberculosis with cofactor F420 mutant.
The test system of experiment [2] is Mycobacterium tuberculosis. Put plainly: Antimycobacterial activity against Mycobacterium tuberculosis with deazaflavin-dependent nitroreductase mutant.
In experiment [3] the test system is Mycobacterium tuberculosis. In words: Antimycobacterial activity against Mycobacterium tuberculosis with deazaflavin-dependent nitroreductase mutant under anaerobic condition.

In ChEMBL document CHEMBL1140917, “Structure-activity relationships of antitubercular nitroimidazoles. 1. Structural features associated with aerobic and anaerobic activities of 4- and 5-nitroimidazoles” (2009) one finds MIC and MAC data, which are given here for 16 molecules.

The term MIC denotes the lowest concentration found to suppress growth. Read a low MIC as greater potency. On to `CO[C@@H]1COc2nc([N+](=O)[O-])cn2C1`, for which the MIC in experiment [1] and in experiment [2] was over 100 µM each time. This molecule had an MAC in experiment [3] of 250 µM.

Regarding `COc1ncc([N+](=O)[O-])n1CCO`, the MIC in experiment [1] and in experiment [2] was over 100 µM in each case. The MAC in experiment [3] was over 500 µM.

For `O=[N+]([O-])c1cnc2n1C[C@H](OCc1ccc(OC(F)(F)F)cc1)CO2`, the MIC in experiment [1] and in experiment [2] was over 100 µM each time. This molecule also displayed an MAC in experiment [3] of 62.5 µM.

`O=[N+]([O-])c1cnc2n1C[C@@H](O)CC2`: the MIC in experiment [1] and in experiment [2] was over 100 µM in each case. The MAC in experiment [3] is over 100 µM.

With `O=[N+]([O-])c1cn2c(n1)OC[C@@H](O)C2`, the MIC in experiment [1] and in experiment [2] was over 100 µM in each case. For the same molecule, the MAC in experiment [3] came out at 500 µM.

For `COc1nc([N+](=O)[O-])cn1CCOCc1ccc(OC(F)(F)F)cc1`, the MIC in experiment [1] and in experiment [2] was over 100 µM in each case. The same molecule came in with an MAC in experiment [3] of 250 µM.

Regarding `O=[N+]([O-])c1cnc2n1C[C@H](O)CO2`, the MIC in experiment [1] and in experiment [2] was over 100 µM in each case. In addition, the MAC in experiment [3] was 125 µM.

In the case of `Cc1ncc([N+](=O)[O-])n1CCOCc1ccc(OC(F)(F)F)cc1`, the MIC in experiment [1] and in experiment [2] was over 100 µM each time. In experiment [3], this molecule returned an MAC of 125 µM.

Take `O=[N+]([O-])c1cn2c(n1)C=C[C@@H](OCc1ccc(OC(F)(F)F)cc1)C2`: the minimum inhibitory concentration (MIC) in experiment [1] and in experiment [2] was over 100 µM each time. Further, the MAC in experiment [3] came out at 62.5 µM.

As to `Cc1nc([N+](=O)[O-])cn1CCOCc1ccc(OC(F)(F)F)cc1`, the minimum inhibitory concentration (MIC) in experiment [1] and in experiment [2] was over 100 µM throughout. In experiment [3], this molecule yielded an MAC of over 500 µM.

For `O=[N+]([O-])c1cn2c(n1)CC[C@@H](OCc1ccc(OC(F)(F)F)cc1)C2`, the MIC in experiment [1] and in experiment [2] was over 100 µM throughout. The molecule also gave an MAC in experiment [3] of 250 µM.

In the case of `Cc1nc([N+](=O)[O-])cn1CCO`, the MIC in experiment [1] and in experiment [2] was over 100 µM throughout. This molecule showed an MAC in experiment [3] of over 500 µM.

With `O=[N+]([O-])c1cnc2n1C[C@H](O)CC2`, the MIC in experiment [1] and in experiment [2] was over 100 µM in each case. The MAC in experiment [3] was over 500 µM.

For the molecule `FC(F)(F)Oc1ccc(CO[C@@H]2COc3nccn3C2)cc1`, the MIC in experiment [1] and in experiment [2] was over 100 µM each time. In experiment [3], this molecule gave an MAC of over 500 µM.

With `Cc1ncc([N+](=O)[O-])n1CCO` [METRONIDAZOLE], the MIC in experiment [1] and in experiment [2] was over 100 µM throughout.

For `O=[N+]([O-])c1cn2c(n1)OC[C@@H](OCc1ccc(OC(F)(F)F)cc1)C2` [PRETOMANID], the MIC in experiment [1] and in experiment [2] was over 100 µM each time. The molecule further had an MAC in experiment [3] of over 500 µM.
